The assay has as its system L1210 leukemia ip in BDF1 mice, survival T/C. The assay can be described thus: NCI In Vivo Anticancer Drug Screen. Data for tumor model L1210 Leukemia (intraperitoneal) in B6D2F1 (BDF1) mice. The note with it: endpoint: mean survival time, higher = longer survival. The procedure, abridged: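 Transplantable tumor model; survival measured in treated vs vehicle control mice. Value = treated/control.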

Where [1] appears, read: dose: 100.0 mg/kg/injection, schedule: Q01DX009 (ip), vehicle: saline with Tween-80.
Where [2] appears, read: dose: 200.0 mg/kg/injection, schedule: Q01DX009 (ip), vehicle: saline with Tween-80.
Where [3] appears, read: dose: 400.0 mg/kg/injection, schedule: Q01DX009 (ip), vehicle: saline with Tween-80.
[4] abbreviates: dose: 50.0 mg/kg/injection, schedule: Q01DX009 (ip), vehicle: saline with Tween-80.
Where [5] appears, read: dose: 200.0 mg/kg/injection, schedule: Q01DX001 (ip), vehicle: saline.
[6] abbreviates: dose: 100.0 mg/kg/injection, schedule: Q04DX003 (ip), vehicle: saline with Tween-80.
Setting [7] is: dose: 200.0 mg/kg/injection, schedule: Q04DX003 (ip), vehicle: saline with Tween-80.
The mark [8] stands for this setting: dose: 400.0 mg/kg/injection, schedule: Q04DX003 (ip), vehicle: saline with Tween-80.
[9] abbreviates: dose: 100.0 mg/kg/injection, schedule: Q01DX009 (ip), vehicle: Klucel (hydroxypropylcellulose) (HPC).
The mark [10] stands for this setting: dose: 200.0 mg/kg/injection, schedule: Q01DX009 (ip), vehicle: Klucel (hydroxypropylcellulose) (HPC).
[11] abbreviates: dose: 400.0 mg/kg/injection, schedule: Q01DX009 (ip), vehicle: Klucel (hydroxypropylcellulose) (HPC).
The mark [12] stands for this setting: dose: 100.0 mg/kg/injection, schedule: Q01DX001 (ip), vehicle: carboxymethylcellulose (CMC).
The mark [13] stands for this setting: dose: 200.0 mg/kg/injection, schedule: Q01DX001 (ip), vehicle: carboxymethylcellulose (CMC).
Setting [14] is: dose: 400.0 mg/kg/injection, schedule: Q01DX001 (ip), vehicle: carboxymethylcellulose (CMC).

“And” between values parts separate entries of the source, which are not always exact repeats. Identical values can stand only once. Inconclusive results and toxic doses are left out.

For `Oc1ccc(NC(=S)Nc2ccccc2)cc1`, the T/C runs as follows: under setting [1], 93 % of control; under setting [2], 88 % of control; under setting [3], 92 % of control.
`O=C1C2(Cl)C(Cl)=C(Cl)C1(Cl)C1(Cl)C(Cl)=C(Cl)C(=O)C21Cl` (configuration not stated): the T/C was 102 % of control (dose: 100.0 mg/kg/injection, schedule: Q01DX001 (ip), vehicle: Klucel (hydroxypropylcellulose) (HPC)); 102 % of control (dose: 200.0 mg/kg/injection, schedule: Q01DX001 (ip), vehicle: Klucel (hydroxypropylcellulose) (HPC)); 97 % of control (dose: 400.0 mg/kg/injection, schedule: Q01DX001 (ip), vehicle: Klucel (hydroxypropylcellulose) (HPC)).
For the compound `COC1=C(OC)C(=O)C(Sc2ccc3ccccc3c2)=CC1=O`, the T/C (dose: 6.25 mg/kg/injection, schedule: Q01DX009 (ip), vehicle: saline with Tween-80) was 100 % of control; the T/C (dose: 12.5 mg/kg/injection, schedule: Q01DX009 (ip), vehicle: saline with Tween-80) is 94 % of control; the T/C (dose: 25.0 mg/kg/injection, schedule: Q01DX009 (ip), vehicle: saline with Tween-80) is 100 % of control; the T/C under setting [4] was 96 % of control; the T/C under setting [1] was 94 % of control.
Regarding `CCOC(C(=O)O)(c1ccccc1)c1ccccc1`, the T/C was 97 % of control (dose: 100.0 mg/kg/injection, schedule: Q04DX002 (ip), vehicle: Klucel (hydroxypropylcellulose) (HPC)) and 97 % of control (dose: 200.0 mg/kg/injection, schedule: Q04DX002 (ip), vehicle: Klucel (hydroxypropylcellulose) (HPC)).
Consider `CCCCCCCCCC(=O)c1nc(N)nc(N)n1`, for which the T/C is, setting by setting: under setting [4], 105 % of control; under setting [1], 105 % of control; under setting [2], 97 % of control.
As to `COc1ccc(C)cc1NC(=O)OCCOc1ccc(C(C)(C)C)cc1`, the T/C by setting is: under setting [4], 90 % of control; under setting [1], 90 % of control; under setting [2], 90 % of control.
As for `CC1CN1C(=O)Nc1ccc(Cl)cc1` (configuration not stated), the T/C runs as follows: (dose: 25.0 mg/kg/injection, schedule: Q04DX002 (ip), vehicle: other) 116 % of control; (dose: 50.0 mg/kg/injection, schedule: Q04DX002 (ip), vehicle: other) 100 % of control; (dose: 100.0 mg/kg/injection, schedule: Q04DX002 (ip), vehicle: other) 97 % of control and 91 % of control.
For the compound `COCCCNc1ncnc2[nH]ncc12`, the T/C by setting is: (dose: 15.0 mg/kg/injection, schedule: Q01DX015 (ip), vehicle: saline) 95 % of control; (dose: 30.0 mg/kg/injection, schedule: Q01DX015 (ip), vehicle: saline) 101 % of control; (dose: 50.0 mg/kg/injection, schedule: Q04DX003 (ip), vehicle: saline) 96 % of control; (dose: 60.0 mg/kg/injection, schedule: Q01DX015 (ip), vehicle: saline) 97 % of control; (dose: 100.0 mg/kg/injection, schedule: Q01DX001 (ip), vehicle: saline) 106 % of control; (dose: 100.0 mg/kg/injection, schedule: Q04DX003 (ip), vehicle: saline) 98 % of control. In addition, the T/C is, setting by setting: (dose: 120.0 mg/kg/injection, schedule: Q01DX015 (ip), vehicle: saline) 110 % of control; under setting [5], 106 % of control; (dose: 200.0 mg/kg/injection, schedule: Q04DX003 (ip), vehicle: saline) 100 % of control; (dose: 400.0 mg/kg/injection, schedule: Q01DX001 (ip), vehicle: saline) 116 % of control.
As for `OCc1ccn2c1[C@@H](O)CC2`, the T/C was 107 % of control (dose: 6.25 mg/kg/injection, schedule: Q01DX009 (ip), vehicle: saline); 100 % of control (dose: 12.5 mg/kg/injection, schedule: Q01DX009 (ip), vehicle: acetone); 96 % of control (dose: 12.5 mg/kg/injection, schedule: Q01DX009 (ip), vehicle: saline); 101 % of control and 107 % of control (dose: 25.0 mg/kg/injection, schedule: Q01DX001 (ip), vehicle: saline); 111 % of control (dose: 25.0 mg/kg/injection, schedule: Q01DX009 (ip), vehicle: acetone); 110 % of control (dose: 25.0 mg/kg/injection, schedule: Q01DX009 (ip), vehicle: saline). Further, the T/C reads like this: (dose: 50.0 mg/kg/injection, schedule: Q01DX001 (ip), vehicle: saline) 112 % of control; (dose: 50.0 mg/kg/injection, schedule: Q01DX009 (ip), vehicle: saline) 153 % of control; (dose: 100.0 mg/kg/injection, schedule: Q01DX009 (ip), vehicle: saline) 121 % of control and 89 % of control; under setting [5], 112 % of control.
Consider `N#Cc1ccc[n+]([O-])c1`, for which the T/C under setting [6] was 100 % of control, the T/C under setting [7] is 101 % of control and the T/C under setting [8] was 97 % of control.
With `Cc1ccn(C(N)=O)n1`, the T/C is 107 % of control under setting [9]; 98 % of control (dose: 100.0 mg/kg/injection, schedule: Q04DX003 (ip), vehicle: Klucel (hydroxypropylcellulose) (HPC)); 102 % of control under setting [10]; 96 % of control (dose: 200.0 mg/kg/injection, schedule: Q04DX003 (ip), vehicle: Klucel (hydroxypropylcellulose) (HPC)); 115 % of control under setting [11]; 100 % of control (dose: 400.0 mg/kg/injection, schedule: Q04DX003 (ip), vehicle: Klucel (hydroxypropylcellulose) (HPC)).
`COc1cccc2c(=O)cc(C)[nH]c12`: the T/C is 104 % of control (dose: 50.0 mg/kg/injection, schedule: Q01DX009 (ip), vehicle: water); 102 % of control (dose: 100.0 mg/kg/injection, schedule: Q01DX009 (ip), vehicle: water); 101 % of control (dose: 100.0 mg/kg/injection, schedule: Q04DX003 (ip), vehicle: water); 109 % of control (dose: 200.0 mg/kg/injection, schedule: Q01DX009 (ip), vehicle: water); 96 % of control (dose: 200.0 mg/kg/injection, schedule: Q04DX003 (ip), vehicle: water); 105 % of control (dose: 400.0 mg/kg/injection, schedule: Q01DX009 (ip), vehicle: water). The T/C (dose: 400.0 mg/kg/injection, schedule: Q04DX003 (ip), vehicle: water) is 108 % of control.
As for `CC(=O)Oc1c2sccc2cc2ccsc12`, the T/C was 97 % of control (dose: 100.0 mg/kg/injection, schedule: Q01DX001 (ip), vehicle: saline with Tween-80); 92 % of control (dose: 200.0 mg/kg/injection, schedule: Q01DX001 (ip), vehicle: saline with Tween-80); 92 % of control (dose: 400.0 mg/kg/injection, schedule: Q01DX001 (ip), vehicle: saline with Tween-80).
For the compound `O=C(Cl)c1ccc(N2C(=O)c3ccccc3C2=O)cc1[N+](=O)[O-]`, the T/C under setting [1] was 98 % of control; the T/C under setting [6] is 102 % of control; the T/C under setting [2] is 97 % of control; the T/C under setting [7] is 98 % of control; the T/C under setting [3] was 106 % of control; the T/C under setting [8] is 100 % of control.
On to `COC1C(OC(N)=O)C(O)C(Oc2ccc3c(O)c(NC(=O)c4ccc(O)c(CC=C(C)C)c4)c(=O)oc3c2C)OC1(C)C` (configuration not stated), for which the T/C is 91 % of control (dose: 50.0 mg/kg/injection, schedule: Q01DX Z (ip), vehicle: saline); 91 % of control (dose: 100.0 mg/kg/injection, schedule: Q01DX Z (ip), vehicle: saline); 91 % of control (dose: 200.0 mg/kg/injection, schedule: Q01DX Z (ip), vehicle: saline).
For the compound `COc1ccc(-c2ccc(OC)c(OC)c2)cc1OC`, the T/C reads like this: under setting [12], 110 % of control; under setting [13], 104 % of control; under setting [14], 110 % of control.
Take `CC(=O)Nc1ccc(OCCOC(=O)Nc2c(C)cccc2C)cc1`: the T/C runs as follows: under setting [1], 87 % of control; under setting [2], 92 % of control; under setting [3], 94 % of control.
For the compound `COC(=O)CC1C(C)(C)C(=O)C2CC3=C4CC(=O)OC(c5ccoc5)C4(C)CCC3C1(C)C2=O` (configuration not stated), the T/C under setting [12] is 97 % of control, the T/C under setting [13] was 92 % of control and the T/C under setting [14] is 90 % of control.
As to `COc1ccc(C)cc1NC(=O)Nc1ccccc1F`, the T/C reads like this: under setting [9], 97 % of control and 91 % of control; under setting [10], 89 % of control; under setting [11], 92 % of control and 101 % of control.
